Results on eight compounds are retold here after patent US11918610B2, “Methods for diagnosis and treatment of type 1 diabetes” (priority 2018, dated 2024).

One experiment concerns E. coli biofilm. In words: Release of bacterial amyloid from E. coli biofilm after prophage induction (Congo Red absorbance of supernatant). The experiment is classed as cell-based, Escherichia coli. As to conditions: for Congo Red absorbance of biofilm supernatant (release of bacterial amyloid): 10h following prophage induction. As for the experimental part: Next, the effect of prophage induction on E. coli biofilm to amyloid release was evaluated. The amount of amyloid fibers in the biofilm supernatant was determined following prophage induction. Biofilm supernatant was collected and centrifuged at 5000 rpm (Eppendorf 5113) to sediment cells. Supernatant was filtered with […] and heated to eliminate contaminating proteins by incubating in a boiling water bath for 10 minutes, under the assumption that the aggregated β-sheet amyloid is heat resistant. To quantify the amount of aggregated amyloid, its binding to the amyloid diagnostic dye Congo Red (CR) was evaluated (Table 12). CR added to a final concentration of 10 μg/mL at pH 4.5 was tested using a BioRad UV/Vis spectrophotometer at 25° C. After 5 minutes of equilibration, the absorbance spectra were recorded from 400 to 600 nm. Each trace represents the average of 3 accumulated spectra.
Next, the inventors evaluated the effect of prophage induction on the amount of amyloid fibers released into the biofilm supernatant. Supernatant CR depletion assays were performed as follows. The amount of bacterial amyloid following prophage induction was measured in the supernatant of E. coli MG1655 biofilms. Biofilms were obtained as described above. Biofilm supernatant was taken at 4, 6, 8, and 10 h following prophage induction. To isolate aggregated amyloid fibers from the supernatant, the supernatant was centrifuged at 10,000×g, filtered through a 0.22 μm filter to separate bacterial cells, and treated with proteinase K to eliminate contaminating proteins. CR (Sigma-Aldrich) was added to a final concentration of 10 μg/ml from a filtered stock solution of 1 mg/ml (Reichhardt et al., 2015). After 5 min of equilibration, absorbance spectra were recorded from 400 to 600 nm (SmartSpec 3000, Bio-Rad). Each trace represents the average of 5 accumulated spectra. For all samples, spectra of corresponding nutrient MHB solutions with CR were used as blanks.
To quantify the amount of aggregated amyloid, its binding to the amyloid-diagnostic dye was evaluated by a Congo red (CR) assay (Reichhardt et al., 2015). A significant increase in CR absorbance was observed upon binding to supernatant 8 h following prophage induction as compared with control samples (FIG. 7). Like for other curli fibers, […] of the E. coli supernatant induced a spectral shift of the CR solution, with a maximum difference in absorbance between CR alone and CR bound to amyloid fibers at ˜541 nm (Chapman et al., 2002).

The subject of experiment [1] is MG1655 wild-type lysogenic strain biofilm. In words: Prophage induction with mitomycin C in E. coli biofilm: CFU numbers. The experiment is classed as cell-based, Escherichia coli. To be noted: for CFU numbers: prophage induction with 1 μg/ml mitomycin C, 48h biofilm; for CFU: Table 17, prophage induction with mitomycin C, 48-h biofilm. The procedure:
(§1) We used 48h old E. coli biofilms formed by amyloid-producing E. coli VT-55. Bacteriophages λ (from our collection) were employed. E. coli lysogenic strains were obtained by infection of host bacteria with phage. Prophages were induced with 1 μg/ml mitomycin C (Sigma). To confirm lytic development of bacteriophage we measured an increase in the number of plaque forming units (PFU) and the reduction of bacterial colony-forming units CFU numbers, throughout the 4 h to 10 h period (Table 2). The PFU number in E. coli biofilm was determined by the production of plaques on control E. coli culture.
(§2) Next, the E. coli phage/E. coli bacterial cell ratio, which represents the “lytic potential” (FIG. 6) (Waller et al., 2014), was analyzed. E. coli strain MG1655 was used as a host for prophage induction experiments (Jensen 1993). Bacteria were subcultured from freezer stocks onto Mueller-Hinton agar plates (Oxoid) and incubated at 37° C. overnight. All subsequent liquid subcultures were derived from colonies isolated from these plates and were grown in Mueller-Hinton broth (Oxoid). Bacteriophage λ from the inventors' collection was employed. Bacteriophage suspensions were routinely stored in TM buffer (10 mM Tris-HCl, 10 mM MgSO4, pH 7.2) at 4° C. E. coli lysogenic strains were obtained by infection of E. coli MG1655 with the phage and titration of cells on Mueller-Hinton agar plates as previously described (Maniatis et al. 1989). For prophage induction, Mitomycin C (Sigma-Aldrich) was prepared in 0.1 M phosphate buffer (pH 7.2), filtered through a 0.22-μm-pore filter (Millipore Corp., Bedford, Mass.), and stored at 4° C. (Georgopoulos et al., 2002). A modified protocol according to Reyrolle et al. designed for prophage induction on 96-well plates was used (Reyrolle et al., 1982; McDonald et al., 2010). Twenty microliters of an overnight E. coli MG1655 culture, with an absorbance at 600 nm of 0.2, was dispensed in each well of a 96-well flat-bottom polystyrene tissue culture microtiter plate (Sarstedt, Numbrecht, Germany), after which 180 μl of MHB (Oxoid) was added. The plates were incubated at 37° C. for 48 h. Induction of prophages in the E. coli biofilms was provoked by the addition of mitomycin C (Sigma) to a final concentration 1 μg/ml to each well. The plates were further incubated at 37° C. and samples were taken at 4, 6, 8, and 10 h following prophage induction.
(§3) The inventors evaluated how the die-off of E. coli populations due to prophage induction could lead to amyloid release. The inventors used 48-h old E. coli biofilms with confirmed curli expression. Curli formation on 48-h colonies was visible with the naked eye on petri dishes (data not shown). Prophages were induced with mitomycin C. Lytic bacteriophage development was confirmed as an increase in plaque forming units (PFU) and a reduction in colony-forming units (CFU).
(§4) CFU and PFU were determined as follows. To estimate CFU, biofilms were thoroughly scraped (Tetz et al., 2009). Well contents were aspirated, placed in 1 ml of isotonic phosphate buffer (0.15 M, pH 7.2), and the total CFU number was determined by serial dilution and plating on Mueller-Hinton agar. The number of phage virions produced after induction was estimated by phage titration (using strain MG1655 as a host) and phage plaque assay. Following induction, at the indicated times 200-μl samples of biofilms were collected. Then, 30 μl of chloroform was added to each sample, the mixture was vortexed and centrifuged at 3000×g for 5 min in a microcentrifuge (Eppendorf 5415D). A supernatant fraction of the bacterial lysate was further used. The phage titer (number of phages per ml) was determined using the double agar overlay assay method as described previously (Yuan et al., 2012). To this end, 2.5 μl of each titration point of phage lysate was spotted on Mueller-Hinton agar (Oxoid). […]

Experiment [2] relates to MG1655 wild-type lysogenic strain (bacteriophage λ) biofilm. In words: Prophage induction with mitomycin C in E. coli biofilm: PFU numbers (phage plaque assay). It is filed as cell-based, Escherichia coli. As to conditions: for PFU numbers: prophage induction with 1 μg/ml mitomycin C, 48h biofilm; for PFU: Table 17, prophage induction with mitomycin C, 48-h biofilm. As for the experimental part:
as §1, §2, §3, §4

Experiment [3] concerns non-obese diabetic mice (NOD/ShiLtJ) colonized with E. coli VT-55. The experiment is classed as in vivo. To be noted: NOD mice gavaged with E. coli VT-55; regimen of each agent as in Table 3; positive control (no therapy) 16, negative controls 24 and 26.
Protocol: For this study non-obese diabetic mice (NOD/ShiLtJ) 8 weeks old (Jackson Laboratory, Bar Harbor, Me., USA) were housed and bred under specific pathogen-free conditions. Mice were maintained in a temperature controlled (22±2° C.) animal facility with a 12 hour light/dark cycle and were allowed free access to food and acidified drinking water. To increase the efficacy of E. coli transfer, all animals were exposed to antibiotic treatment before the transfer of E. coli. Starting at three weeks of age, recipient mice were treated with ampicillin (1 g/L) in the drinking water for the next 4 weeks. The bacterial strains used: E. coli strain VT-55—a wild-type, amyloid-producing strain. E. coli VT-55 bacteria were administered with oropharyngeal gavage to 8 week old female mice at 10^8 CFU, 2 times a week. Acceleration of T1D development was accessed by measuring blood glucose in a manner consistent with diabetes monitoring, using a FreeStyle Lite meter and test strips (Abbott). Blood glucose was evaluated weekly via a tail vein. T1D development was defined as occurring after two consecutive blood glucose measurements of at least 250 mg/dL.
TTR was expressed in E. coli VT-243. The TTR protein was precipitated from the supernatant of a 48 hour culture of E. coli VT-243 after centrifugation (12,000×g, 20 minutes 4° C.) of the lysed cells in the gradient 40-90% ammonium sulfate fraction (1.8-3.6 M). The precipitate that contained TTR was dialyzed overnight against 10 mM sodium phosphate buffer, pH 7.5, 100 mM KCl, 1 mM EDTA. The same volume of 200 mM sodium acetate buffer (pH 4.4, 100 mM KCl, 1 mM EDTA) was added to achieve a final pH of 4.5, and the mixture was then incubated for 18 hours at 37° C. Following centrifugation (45 min, 30,000×g, 4° C.), the supernatant was gel filtrated (Superdex 75) to elute phosphate buffer.
To develop nanoparticles with siRNA, we used cholesterol, distearoyl-sn-glycerol-3-phosphocholine (DSPC) and PEG2000-DMG (all Sigma). Nanoparticles were prepared by dissolving the 306013 lipidoid, cholesterol, DSPC, and PEG2000-DMG with final molar ratio of 50:38.5:10:1.5 in a 90% ethanol enriched with 10% 10 nM sodium citrate. Particles were formed following vortexing of equal volumes of siRNA solution with the lipid solution and subsequent dilution in PBS. Mice were orally gavaged with nanoparticles loaded with siRNA at a dose of 5 mg/kg.
The EcVac vaccine consisted of conjugates containing the 0-antigens of serotypes 06 of E. coli VT-55. […] The suspension for iv administration was made in TBS, (pH 7.4; 25 mmol Tris, 137 mmol NaCl, 2.8 mmol KCl).
Balb/c mice were immunized (10 μg) intraperitoneally and boosted (1 μg) subcutaneously with the E. coli amyloid isolated as previously described. Splenocytes were removed under sterile conditions, washed and hybridized to murine plasmacytoma parent cell line SP2/OAg14 using 40% polyethylene glycol and a spleen cell to plasmacytoma cell ratio of 5:1. Cells were plated in 96-well microtiter (Sarstedt) plates at 100,000 cells/per well with DMEM supplemented with 10% fetal bovine serum. Following 48h, cells were supplemented with hypoxanthine (100 PM) containing medium. After three washes with PBS-1% BSA, the presence of specific antibody binding was detected by ELISA. Serotype specific wells were cloned. Pristine-primed BALB/c mice were IP injected with 1×10^7 hybridoma cells. Ascites fluid was collected 14 days later, centrifuged (5000 g, 20 min, Eppendorf) and stored at −80° C. before use.
[4] abbreviates: 48-h old E. coli biofilms, mitomycin C 1 μg/ml.

No end group written: not given here.

As to `CO[C@@]12[C@H](COC(N)=O)C3=C(C(=O)C(C)=C(N)C3=O)N1C[C@@H]1N[C@@H]12` [mitomycin C, reference compound], the “Amyloid release from preformed E. coli biofilms after prophage activation (in words)” value in the experiment with E. coli biofilm (in vitro, mitomycin C 1 μg/ml, 48 h biofilms) was “pronounced amyloid release”. For the same compound, in experiment [1] (setting [4]), the “Colony-forming units (CFU) after prophage induction (in words)” value is listed as “reduction”. Moreover, in experiment [2] (setting [4]), the “Plaque forming units (PFU) after prophage induction (in words)” value is recorded as “increase”.

For `CO[C@@]12[C@H](COC(N)=O)C3=C(C(=O)C(C)=C(N)C3=O)N1C[C@@H]1N[C@@H]12` [Mytomicin C], the “Congo Red absorbance of biofilm supernatant (release of bacterial amyloid)” value is listed as 0 with E. coli biofilm (wavelength 400 nm); 0.156 in the experiment on E. coli biofilm (wavelength 450 nm); 0.338 with E. coli biofilm (wavelength 500 nm); 0.421 in the experiment on E. coli biofilm (wavelength 541 nm); 0.345 in the experiment on E. coli biofilm (wavelength 550 nm); 0.015 in the experiment with E. coli biofilm (wavelength 600 nm). Also, the CFU numbers is 8.8log10 +/− log10 CFU/ml in experiment [1] (4 h), 8.2log10 +/− log10 CFU/ml in experiment [1] (6 h), 7.6log10 +/− log10 CFU/ml in experiment [1] (8 h) and 7.4log10 +/− log10 CFU/ml in experiment [1] (10 h). Further, the PFU numbers in experiment [2] (4 h) was determined as 2.3log10 +/− log10 PFU/ml; in experiment [2] (6 h) it was 9.3log10 +/− log10 PFU/ml; in experiment [2] (8 h) it was 10.4log10 +/− log10 PFU/ml; in experiment [2] (10 h), 11.2log10 +/− log10 PFU/ml.

For the compound “GGVLVQPG [Larazotide, Glycylglycyl-L-valyl-L-leucyl-L-valyl-L-glutaminyl-L-prolyl-glycine, reference compound]”, the “Median T1D incidence 50% (weeks)” value in experiment [3] is listed as 24 weeks.

For `CCCCCCCO[C@H]1O[C@H](CO)[C@@H](O)[C@H](O)[C@@H]1O` [n-Heptyl α-D-mannose, reference compound], the “Median T1D incidence 50% (weeks)” value in experiment [3] is 22 weeks.

As to “Transthyretin: mouse Transthyretin expressed in E. coli VT-243”, the “Median T1D incidence 50% (weeks)” value in experiment [3] amounted to 24 weeks.

Turning to `CO[C@@]12[C@H](COC(N)=O)C3=C(C(=O)C(C)=C(N)C3=O)N1C[C@@H]1N[C@@H]12` [mytomicin C], the CFU in experiment [1] (4 h) is recorded as 8.8 log10 CFU/ml; in experiment [1] (6 h) it was 8.2 log10 CFU/ml; in experiment [1] (8 h) it was 7.6 log10 CFU/ml; in experiment [1] (10 h) it was 7.4 log10 CFU/ml. The PFU worked out at 2.3 log10 PFU/ml in experiment [2] (4 h), 9.3 log10 PFU/ml in experiment [2] (6 h), 10.4 log10 PFU/ml in experiment [2] (8 h) and 11.2 log10 PFU/ml in experiment [2] (10 h).

Turning to `O=C(O)C1CSC2=C(C3CC3)C(Cc3cccc4ccccc34)CC(=O)N21` (stereo not drawn) [8-cyclopropyl-7-(1-naphthylmethyl)-5-oxo-2,3,6,7-tetrahydro-5H-[1,3]thiazolo[3,2-a]pyridine-3-carboxylic acid], the “Median T1D incidence 50% (weeks)” value in experiment [3] was 21 weeks.

For `C[C@H]1c2cccc(O)c2C(=O)C2=C(O)[C@]3(O)C(=O)C(C(N)=O)=C(O)[C@@H](N(C)C)[C@@H]3[C@@H](O)[C@@H]21` [Doxycycline, reference compound], in experiment [3], the “Median T1D incidence 50% (weeks)” value was determined as 25 weeks.
